# Values quoted from earlier work in patent publication US20180015164A1, “A Composition Containing Protective Agent for Singlet Oxygen and A Preparation Method therefor” (Nanjing University, priority 2016, published 2018).
# Conditions: in the named solution (solvent / protective agent)
row,Compound,lifetime of singlet oxygen [μs]
1,FC(Cl)(Cl)Cl [Freon 11],1000±200
2,S=C=S [carbon disulfide],200±60
3,ClC(Cl)Cl [chloroform],60±15
4,[2H]O[2H] [deuteroxide],20
5,CCO [ethyl alcohol],12
6,CCCCCC [hexane],17
7,CO [methyl alcohol],7
8,FC(F)(F)C(F)(F)C(F)(F)C(F)(F)C(F)(F)C(F)(F)F [perfluorohexane],600±200
9,O [water],2
